Assay results from PubChem BioAssay AID256 (DTP/NCI, 2004).
Inconclusive results and toxic doses are left out. How the source made its calls: active means survival T/C of 150% or more; inactive means T/C below 125% in these data.

System: CD2F1 mice, L1210 leukemia ip, survival T/C
Experiment: NCI In Vivo Anticancer Drug Screen. Data for tumor model L1210 Leukemia (intraperitoneal) in CD2F1 (CDF1) mice
Settings: endpoint: mean survival time, higher = longer survival
Summary of the method: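 Transplantable tumor in mice; compound-treated vs vehicle-treated groups. Read-out = treated/control ratio of the measured endpoint.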

[1] = dose: 25.0 mg/kg/injection, schedule: Q04DX003 (ip), vehicle: saline
[2] = dose: 50.0 mg/kg/injection, schedule: Q04DX003 (ip), vehicle: saline
[3] = dose: 100.0 mg/kg/injection, schedule: Q04DX003 (ip), vehicle: saline
[4] = dose: 100.0 mg/kg/injection, schedule: Q01DX001 (ip), vehicle: saline with Tween-80
[5] = dose: 200.0 mg/kg/injection, schedule: Q01DX001 (ip), vehicle: saline with Tween-80
[6] = dose: 400.0 mg/kg/injection, schedule: Q01DX001 (ip), vehicle: saline with Tween-80
[7] = dose: 50.0 mg/kg/injection, schedule: Q01DX009 (ip), vehicle: saline with Tween-80
[8] = dose: 25.0 mg/kg/injection, schedule: Q01DX009 (ip), vehicle: saline
[9] = dose: 100.0 mg/kg/injection, schedule: Q04DX003 (ip), vehicle: saline with Tween-80
[10] = dose: 200.0 mg/kg/injection, schedule: Q04DX003 (ip), vehicle: saline with Tween-80
[11] = dose: 400.0 mg/kg/injection, schedule: Q04DX003 (ip), vehicle: saline with Tween-80
[12] = dose: 100.0 mg/kg/injection, schedule: Q01DX009 (ip), vehicle: saline with Tween-80
[13] = dose: 200.0 mg/kg/injection, schedule: Q01DX009 (ip), vehicle: saline with Tween-80
[14] = dose: 400.0 mg/kg/injection, schedule: Q01DX009 (ip), vehicle: saline with Tween-80

Measured: T/C

C=C(C)C1(Cc2ccccc2)C(=O)NC(=S)NC1=O
inactive: dose: 5.0 mg/kg/injection, schedule: Q01DX001 (ip), vehicle: saline 102 % of control | dose: 10.0 mg/kg/injection, schedule: Q01DX001 (ip), vehicle: saline 102 % of control | dose: 20.0 mg/kg/injection, schedule: Q01DX001 (ip), vehicle: saline 104 % of control

COc1cc2c3c(c1)-c1c(ccc(OC)c1OC)CC3N(CCN(CCCl)CCCl)CC2 (stereo unspecified)
inactive: dose: 6.25 mg/kg/injection, schedule: Q04DX003 (ip), vehicle: saline 101 % of control | dose: 12.5 mg/kg/injection, schedule: Q04DX003 (ip), vehicle: saline 98 % of control | [1] 101 % of control | [2] 101 % of control | [3] 87 % of control

CCOC(=O)CC(=O)c1ccc(C(=O)CC(=O)OCC)cc1
inactive: [4] 89 % of control | [5] 89 % of control | [6] 89 % of control

O=S(=O)(Cl)c1ccc(-c2ccc(S(=O)(=O)Cl)cc2)cc1
inactive: dose: 100.0 mg/kg/injection, schedule: Q04DX003 (ip), vehicle: Klucel (hydroxypropylcellulose) (HPC) 95 % of control | dose: 200.0 mg/kg/injection, schedule: Q04DX003 (ip), vehicle: Klucel (hydroxypropylcellulose) (HPC) 106 % of control | dose: 400.0 mg/kg/injection, schedule: Q04DX003 (ip), vehicle: Klucel (hydroxypropylcellulose) (HPC) 103 % of control

NC(N)=NC1CCCC1
inactive: dose: 25.0 mg/kg/injection, schedule: Q01DX009 (ip), vehicle: saline with Tween-80 102 % of control | [1] 100 % of control | [7] 100 % of control | [2] 91 % of control | [3] 100 % of control

CC1(C)N=C(N)N=C(N)N1c1cccc(C#N)c1
inactive: dose: 17.0 mg/kg/injection, schedule: Q01DX009 (ip), vehicle: saline 112 % of control | [8] 117 % of control | dose: 37.5 mg/kg/injection, schedule: Q01DX009 (ip), vehicle: saline 120 % of control | dose: 75.0 mg/kg/injection, schedule: Q01DX001 (ip), vehicle: saline 104 % of control | dose: 150.0 mg/kg/injection, schedule: Q01DX001 (ip), vehicle: saline 113 % of control

O=C(Nc1ccc([N+](=O)[O-])cc1Cl)OCCc1ccccn1
inactive: [7] 90 % of control | [4] 98 % of control | [9] 93 % of control | [5] 95 % of control | [10] 95 % of control | [6] 93 % of control | [11] 90 % of control

O=[N+]([O-])c1ccc(NCc2ccccc2)c([N+](=O)[O-])c1
inactive: dose: 100.0 mg/kg/injection, schedule: Q04DX003 (ip), vehicle: gum acacia 98 % of control | dose: 200.0 mg/kg/injection, schedule: Q04DX003 (ip), vehicle: gum acacia 106 % of control | dose: 400.0 mg/kg/injection, schedule: Q04DX003 (ip), vehicle: gum acacia 102 % of control

Nc1nc(Br)c(Br)nc1N
inactive: dose: 100.0 mg/kg/injection, schedule: Q01DX009 (ip), vehicle: other 92 % of control | dose: 200.0 mg/kg/injection, schedule: Q01DX009 (ip), vehicle: other 103 % of control | dose: 400.0 mg/kg/injection, schedule: Q01DX009 (ip), vehicle: other 95 % of control

Nc1nc(-c2ccccc2)nc2[nH]ncc12
inactive: [4] 95 % of control | [5] 95 % of control | [6] 89 % of control

CC(C)(CCl)C(=O)O
inactive: [7] 110 % of control | [12] 104 % of control | [9] 100 % of control | [13] 93 % of control | [10] 104 % of control

C1=CC(c2ccccc2)C(c2ccccc2)C(c2ccccc2)=C1 (stereo unspecified)
inactive: [4] 95 % of control | [5] 87 % of control | [6] 87 % of control

Cc1ccc(C#N)cn1
inactive: [12] 101 % of control | dose: 100.0 mg/kg/injection, schedule: Q04DX003 (ip), vehicle: saline sonified 96 % of control | [13] 97 % of control | dose: 200.0 mg/kg/injection, schedule: Q04DX003 (ip), vehicle: saline sonified 96 % of control | [14] 90 % of control | dose: 400.0 mg/kg/injection, schedule: Q04DX003 (ip), vehicle: saline sonified 89 % of control

CCOC(=O)c1cc(Cl)cc(Cl)c1N=NN(C)C
inactive: [8] 93 % of control | dose: 50.0 mg/kg/injection, schedule: Q01DX009 (ip), vehicle: saline 93 % of control | dose: 100.0 mg/kg/injection, schedule: Q01DX009 (ip), vehicle: saline 100 % of control | dose: 200.0 mg/kg/injection, schedule: Q01DX009 (ip), vehicle: saline 97 % of control

Nc1cccc(N2N=C(C(=O)O)CC2=O)c1
inactive: [12] 90 % of control | [9] 103 % of control | [13] 91 % of control | [10] 103 % of control | [14] 91 % of control | [11] 101 % of control

O=P1(Cc2ccccc2)C(c2ccccc2)=C(O)C2CCCC21 (stereo unspecified)
inactive: dose: 50.0 mg/kg/injection, schedule: Q01DX009 (ip), vehicle: Klucel (hydroxypropylcellulose) (HPC) 97 % of control | dose: 100.0 mg/kg/injection, schedule: Q01DX009 (ip), vehicle: Klucel (hydroxypropylcellulose) (HPC) 97 % of control | dose: 200.0 mg/kg/injection, schedule: Q01DX009 (ip), vehicle: Klucel (hydroxypropylcellulose) (HPC) 89 % of control

Cn1c(=O)c2[nH]c(Cl)nc2n(C)c1=O
inactive: dose: 12.5 mg/kg/injection, schedule: Q01DX005 (ip), vehicle: water 92 % of control | dose: 25.0 mg/kg/injection, schedule: Q01DX005 (ip), vehicle: water 93 % of control | dose: 50.0 mg/kg/injection, schedule: Q01DX005 (ip), vehicle: water 103 % of control | dose: 100.0 mg/kg/injection, schedule: Q01DX005 (ip), vehicle: water 87 % of control

Oc1c(C(c2ccccc2)N2CCOCC2)ccc2ccccc12 (stereo unspecified)
inactive: [7] 94 % of control | [12] 102 % of control | [9] 95 % of control | [13] 98 % of control | [10] 103 % of control

O=C(Nc1ccc(Cl)c(Cl)c1)Sc1ccc(Cl)cc1
inactive: [9] 105 % of control

Cc1ccc(S(=O)(=O)OC2CCSCC2)cc1
inactive: dose: 100.0 mg/kg/injection, schedule: Q01DX001 (ip), vehicle: saline 102 % of control | dose: 200.0 mg/kg/injection, schedule: Q01DX001 (ip), vehicle: saline 94 % of control | dose: 400.0 mg/kg/injection, schedule: Q01DX001 (ip), vehicle: saline 94 % of control

O=c1[nH]c2ccc(I)cc2c(=O)o1
inactive: [9] 101 % of control | [10] 98 % of control | [11] 104 % of control

C#CC(CC)OC(=O)c1cc([N+](=O)[O-])cc([N+](=O)[O-])c1 (stereo unspecified)
inactive: [4] 87 % of control | dose: 100.0 mg/kg/injection, schedule: Q04DX002 (ip), vehicle: saline with Tween-80 93 % of control | [5] 94 % of control | dose: 200.0 mg/kg/injection, schedule: Q04DX002 (ip), vehicle: saline with Tween-80 93 % of control | [6] 90 % of control | dose: 400.0 mg/kg/injection, schedule: Q04DX002 (ip), vehicle: saline with Tween-80 93 % of control

O=[N+]([O-])c1cccc(/C=C/C2(CCl)OCCO2)c1
inactive: [4] 101 % of control | [5] 116 % of control
